Measured values: US11066668B2, “Compositions and methods for modulation of IKBKAP splicing” (Ionis Pharmaceuticals, Inc., priority 2012, dated 2021)
“Also recorded” adds a separate entry of the source. Oligonucleotides are written 5' to 3', each unit as a sugar letter and its base; * is a phosphorothioate linkage, no mark a phosphodiester; rarer units and linkages stand in square brackets, end groups in braces. Plain capitals give the bases only. e = 2'-O-(2-methoxyethyl) (MOE); [5mC] = 5-methylcytosine

Tests used:
human IKBKAP mRNA [1] = experiment: Exon 20 inclusion in adult transgenic mice after intracerebroventricular infusion; format: in vivo, mouse; conditions: for Percent inclusion of exon 20 in human IKBKAP mRNA: thoracic spinal cord, day 8
Procedure: (§1) To investigate the effect of ISIS 421992 in an animal model, transgenic mice that carry the entire human IKBKAP gene with the major FD mutation, in addition to being homozygous wild type at the mouse Ikbkap locus, were obtained from an NIH core facility.
Adult mice were treated with ISIS 421992 administered by intracerebroventricular infusion at the rate of 50 μg/day, 100 μg/day, or 200 μg/day. The protocol has been previously described by Hua et al. (Genes Dev. 2010. 24: 1634-1644). Adult mice 3-4 months old and weighing 20-30 g, were anesthetized and placed on a digital stereotaxic instrument (David Kopf Instruments). A small burr hole at the surgical site 1.8 mm lateral to the sagittal suture and 0.3 mm posterior to the bregma suture was drilled through the skull above the right lateral ventricle. A cannula with a 2.2 mm stylet was positioned in the hole. The cannula was connected to an Alzet micro-osmotic pump (model 1007D, Durect Corporation) with a vinyl catheter. The pump, prefilled with the oligonucleotide solution or PBS only was implanted subcutaneously on the back and continuously infused the solution through the cannula into the lateral ventricle at a rate of 0.5 μL per hour. After a week of ICV infusion, the mice were euthanized on day 8 and RNA from the thoracic spinal cord of the transgenic mice was extracted using Trizol and following the manufacturer's protocol. Multiple lanes for each condition represent independent experiments.

[2] = test system: IKBKAP mRNA in GM04899 fibroblasts; experiment: Exon 20 inclusion in FD patient skin fibroblast line GM04899 (RT-PCR); format: cell-based, human; conditions: for % inclusion of exon 20: Lipofectamine 2000, two days, relative to IMR90 cells (100%)
Procedure: To investigate the effect of ISIS 421992 on patient-derived fibroblasts, the patient skin fibroblast line GM04899 (Coriell Cell Repository) was utilized. The cell line was derived from an individual homozygous for the major FD mutation.
GM04899 was cultured in minimal essential medium (Invitrogen) supplemented with non-essential amino acids (Invitrogen) and 20% (v/v) fetal bovine serum. The cells were grown to 40-50% confluence in 10-cm dishes. Cells were transfected with 2 nM, 5 nM, 25 nM, or 125 nM concentrations of ISIS 421992 using 12 μL Lipofectamine 2000 transfection reagent (Invitrogen). Two days later, cDNA synthesized from total RNA extracted from HEK-293 cells was amplified using the forward primer pCDNAF and reverse primer sequence IKAP21R4 to assay the splicing pattern of expressed RNAs by RT-PCR. To calculate exon 20 inclusion levels, the PCR amplicons were labeled with α^32P-dCTP. The PCR products were then separated by native PAGE, followed by phosphorimage analysis. The band intensities were quantified and values were normalized for the G+C content according to the DNA sequence. Multiple lanes for each condition represent independent experiments.
A batch of cells was treated with solvent (NaOH) only of the kinetin solution as a control. RNA from IMR90, a wild-type normal diploid lung fibroblast cell line was used as positive control. The results are expressed as percent inclusion of exon 20 compared to the exon 20 inclusion (100%) of IKBKAP mRNA in IMR90 cells.

human IKBKAP mRNA [3] = experiment: Exon 20 inclusion in neonatal transgenic mice after single ICV or subcutaneous injection; format: in vivo, mouse; conditions: neonatal Tg mice
Procedure: as §1
Neonatal transgenic mice were also treated with ISIS 421992 administered as a single ICV injection dose of 2.5 μg, 5 μg, 10 μg, 20 μg, or 30 μg. A group of neonatal mice were treated with ISIS 421992 administered subcutaneously using a 10 μL micro syringe (Hamilton) and a 33-gauge needle. In all cases, the injections were administered at P1 and the RNA was assayed at P8. The RNA splicing patterns in the various tissues after administering ISIS 421992 in neonate mice were then observed. Multiple lanes for each condition represent independent experiments.

IKAP protein = IKAP protein levels in GM04899 fibroblasts (SDS-PAGE, anti-IKAP antibody, band intensity); format: cell-based, human
Procedure: Protein samples were obtained by Trizol extraction and separated by SDS-PAGE. The bands were transferred onto a nitrocellulose membrane and probed with an anti-IKAP antibody (abcam #ab56362) (1:1,000 dilution in 5% milk in TBST) for 12 hrs. The membrane was washed 5 times with TBST for 5 min each and then probed with secondary antibody 800 nm LiCor (1:5,000 in 5% milk in TBST) for 1 hr in the dark. The membrane was subsequently washed 5 times with TBST for 5 min each. The bands were then exposed at 800 nm and band intensity was quantified using an Odyssey (LiCor) instrument. The results are presented in Table 4 as percent increase in band intensity compared to the control oligonucleotide-treated bands.

ISIS 421992: uniform 2′-MOE 20-mer, phosphate backbone; GTCGCAAACAGTACAATGGC, SEQ ID NO 61, intron 20 (eGeTe[5mC]eGe[5mC]eAeAeAe[5mC]eAeGeTeAe[5mC]eAeAeTeGeGe[5mC])
Percent inclusion of exon 20 in human IKBKAP mRNA (human IKBKAP mRNA [1]; ICV infusion 50 μg/day for a week): 40%
Percent inclusion of exon 20 in human IKBKAP mRNA (human IKBKAP mRNA [1]; ICV infusion 100 μg/day for a week): 46%
Percent inclusion of exon 20 in human IKBKAP mRNA (human IKBKAP mRNA [1]; ICV infusion 200 μg/day for a week): 60%
inclusion of exon 20 in human IKBKAP mRNA, in words (human IKBKAP mRNA [1]; ICV infusion 50-200 μg/day): dose-dependent increase in the inclusion of exon 20
% inclusion of exon 20 ([2]; GM04899, 2 nM): 79%
% inclusion of exon 20 ([2]; GM04899, 5 nM): 95%
% inclusion of exon 20 ([2]; GM04899, 25 nM): 96%
% inclusion of exon 20 ([2]; GM04899, 125 nM): 97%
effect on the splicing defect / full-length mRNA levels, in words ([2]; GM04899 fibroblasts): almost completely suppressed the splicing defect; also recorded: as effective as treatment with kinetin for 3 days in restoring full-length mRNA levels
tissue pattern of full-length IKBKAP mRNA, in words (human IKBKAP mRNA [3]; ICV administration): increased full-length IKBKAP mRNA in the brain and spinal cord, with moderate effects in the peripheral tissues
Percent inclusion of exon 20 in human IKBKAP mRNA (human IKBKAP mRNA [3]; ICV administration, Brain): 50%
Percent inclusion of exon 20 in human IKBKAP mRNA (human IKBKAP mRNA [3]; ICV administration, Heart): 40%
Percent inclusion of exon 20 in human IKBKAP mRNA (human IKBKAP mRNA [3]; ICV administration, Kidney): 33%
Percent inclusion of exon 20 in human IKBKAP mRNA (human IKBKAP mRNA [3]; ICV administration, Liver): 44%
Percent inclusion of exon 20 in human IKBKAP mRNA (human IKBKAP mRNA [3]; ICV administration, Muscle): 33%
Percent inclusion of exon 20 in human IKBKAP mRNA (human IKBKAP mRNA [3]; ICV administration, Spinal Cord): 47%
Percent inclusion of exon 20 in human IKBKAP mRNA (human IKBKAP mRNA [3]; s.c. injection, Brain): 18%
Percent inclusion of exon 20 in human IKBKAP mRNA (human IKBKAP mRNA [3]; s.c. injection, Heart): 58%
Percent inclusion of exon 20 in human IKBKAP mRNA (human IKBKAP mRNA [3]; s.c. injection, Kidney): 36%
Percent inclusion of exon 20 in human IKBKAP mRNA (human IKBKAP mRNA [3]; s.c. injection, Liver): 72%
Percent inclusion of exon 20 in human IKBKAP mRNA (human IKBKAP mRNA [3]; s.c. injection, Muscle): 60%
Percent inclusion of exon 20 in human IKBKAP mRNA (human IKBKAP mRNA [3]; s.c. injection, Spinal Cord): 19%
Percent inclusion of exon 20 in human IKBKAP mRNA (human IKBKAP mRNA [3]; single ICV injection 2.5 μg at P1, RNA at P8): 13%
Percent inclusion of exon 20 in human IKBKAP mRNA (human IKBKAP mRNA [3]; single ICV injection 5 μg at P1, RNA at P8): 18%
Percent inclusion of exon 20 in human IKBKAP mRNA (human IKBKAP mRNA [3]; single ICV injection 10 μg at P1, RNA at P8): 34%
Percent inclusion of exon 20 in human IKBKAP mRNA (human IKBKAP mRNA [3]; single ICV injection 20 μg at P1, RNA at P8): 36%
Percent inclusion of exon 20 in human IKBKAP mRNA (human IKBKAP mRNA [3]; single ICV injection 30 μg at P1, RNA at P8): 48%
tissue pattern of full-length IKBKAP mRNA, in words (human IKBKAP mRNA [3]; subcutaneous administration): primarily affected expression in the liver, skeletal muscle, and heart with moderate effects in the CNS
Percent increase in protein band intensity (IKAP) (IKAP protein; GM04899, 2 nM as printed in Table 4, 3 days after transfection, compared to control oligonucleotide-treated bands): 76%
IKAP protein levels, in words (IKAP protein; GM04899, 5 nM, assayed 3 days after transfection): significant increase in IKAP protein levels
